Consider 11 molecules from ChEMBL document CHEMBL1201862, “PubChem BioAssay data set” (2004).

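Briefly, cells in 96-well plates were exposed to five compound concentrations for 48 h, and endpoints were estimated by linear interpolation. Abbreviation: GI50, concentration required for 50% inhibition of growth.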 Active and inactive are the calls of the source. Rule as the data show it: active = GI50 up to about 1.1 µM and inactive = higher.

Some test systems named below: CCRF-CEM; LOX IMVI; SF-268; SF-539; SN12C; MOLT-4; SK-MEL-5; CAKI-1; U-251; K562; SW-620; HCT-116; COLO 205; SNB-75; SK-OV-3; HL-60; HCT-15; OVCAR-8; SK-MEL-2; OVCAR-3.
Common to all, as to test: growth of human tumour cells (NCI), 48 h

In the case of `O=C(Nc1ccc([N+](=O)[O-])cc1[N+](=O)[O-])C(=O)C(C(=O)c1ccc2ccccc2c1)C1OC(=O)c2ccccc21` (configuration not stated), the GI50 in the assay on CCRF-CEM was 9.51 µM (inactive); in the assay on LOX IMVI, 16.7 µM (inactive); in the assay on SF-268, 8.89 µM (inactive); in the assay with SF-539, 4.5 µM (inactive); with SN12C it was 17.8 µM (inactive); in the assay with MOLT-4 it was 2.95 µM (inactive). For the same molecule, the GI50 is 15.3 µM (inactive) in the assay on SK-MEL-5; 21.7 µM (inactive) with CAKI-1; 4.33 µM (inactive) in the assay with U-251; 14 µM (inactive) in the assay with K562; 13.2 µM (inactive) in the assay with SW-620; 17.6 µM (inactive) in the assay on HCT-116. For the same molecule, the GI50 with COLO 205 is 15.8 µM (inactive); in the assay with SNB-75 it was 14 µM (inactive); in the assay on SK-OV-3, 13.5 µM (inactive); in the assay with HL-60, 12.3 µM (inactive); in the assay with HCT-15 it was 15.9 µM; in the assay with OVCAR-8, 10 µM (inactive). Further, the GI50 with SK-MEL-2 is 22.3 µM (inactive).
Consider `Cc1ccc(S(=O)(=O)NNC2Oc3cc4c(cc3C(c3ccccc3O)C2C)OCO4)cc1` (configuration not stated), for which the GI50 with CCRF-CEM was 10.2 µM (inactive); in the assay with LOX IMVI, 15.2 µM (inactive); with SF-268, 14 µM (inactive); with OVCAR-3, 11.4 µM (inactive); in the assay with SF-539, 16.9 µM (inactive); with SN12C, 15.3 µM (inactive). Further, the GI50 in the assay on MOLT-4 was 10.4 µM (inactive); with SK-MEL-5 it was 14.5 µM (inactive); in the assay on CAKI-1, 11.5 µM (inactive); in the assay with U-251, 10.3 µM (inactive); in the assay on K562 it was 11.1 µM (inactive); in the assay on SW-620 it was 13.7 µM (inactive). Also, the GI50 in the assay on HCT-116 is 10.4 µM (inactive); in the assay with COLO 205, 14.7 µM (inactive); with SNB-75, 10.9 µM (inactive); in the assay on SK-OV-3, 21.7 µM (inactive); in the assay on HL-60, 18.4 µM (inactive); in the assay with HCT-15, 4.9 µM. Further, the GI50 with SK-MEL-2 was 9.62 µM (inactive).
For `CC(C)C1CN(C(=O)OCc2ccccc2)C2N1C(=O)C2(C)OCc1ccccc1` (configuration not stated), the GI50 was 28.1 µM (inactive) with CCRF-CEM; 27.2 µM (inactive) in the assay with LOX IMVI; 44.6 µM (inactive) in the assay on SF-268; > 100 µM (inactive) in the assay with OVCAR-3; 56 µM (inactive) in the assay on SF-539; 48.6 µM (inactive) in the assay on SN12C. Further, the GI50 was 24.4 µM (inactive) in the assay on MOLT-4; 16 µM (inactive) with SK-MEL-5; 41.7 µM (inactive) in the assay on U-251; 34.8 µM (inactive) in the assay on K562; 40.9 µM (inactive) with SW-620; 37.6 µM (inactive) in the assay with HCT-116. For the same molecule, the GI50 is 19.1 µM (inactive) in the assay with COLO 205; 16.7 µM (inactive) in the assay on SNB-75; 22.6 µM (inactive) in the assay with HL-60; 44.8 µM in the assay with HCT-15; 45.4 µM (inactive) in the assay with OVCAR-8; 28.2 µM (inactive) in the assay on SK-MEL-2.
For the molecule `COc1cc(/C=C2\C(=O)N(C(=O)Cc3ccccc3)N=C2C)cc(OC)c1OC`, the GI50 in the assay on CCRF-CEM, with LOX IMVI, in the assay with SF-268, with OVCAR-3, in the assay with SF-539 and in the assay with SN12C was > 100 µM (inactive) each time. For the same molecule, the GI50 in the assay on MOLT-4, in the assay on SK-MEL-5, in the assay with CAKI-1, in the assay on K562, with SW-620 and in the assay with HCT-116 was > 100 µM (inactive) each time. Moreover, the GI50 in the assay on COLO 205 is > 100 µM (inactive); in the assay on SNB-75, > 100 µM (inactive); in the assay on HL-60, > 100 µM (inactive); in the assay on HCT-15, above 100 µM; in the assay on OVCAR-8, > 100 µM (inactive); in the assay on SK-MEL-2, > 100 µM (inactive).
As for `O=C(CCC(=O)Nc1ccc(Cl)c(Cl)c1)CC(=O)c1ccc(Br)cc1`, the GI50 in the assay on CCRF-CEM, in the assay on LOX IMVI, in the assay with SF-268, in the assay on OVCAR-3, in the assay with SF-539 and in the assay on SN12C was > 100 µM (inactive) in each case. In addition, the GI50 was > 100 µM (inactive) in the assay with MOLT-4; > 100 µM (inactive) in the assay with SK-MEL-5; > 100 µM (inactive) with CAKI-1; > 100 µM (inactive) in the assay on U-251; 47.8 µM (inactive) in the assay with K562; > 100 µM (inactive) with SW-620. Also, the GI50 with HCT-116 was > 100 µM (inactive); in the assay with COLO 205, > 100 µM (inactive); in the assay on SNB-75 it was 61.7 µM (inactive); in the assay with SK-OV-3, > 100 µM (inactive); in the assay with HCT-15, 40.5 µM; with OVCAR-8, > 100 µM (inactive). The GI50 in the assay with SK-MEL-2 is > 100 µM (inactive).
As to `CC1C(NNC(N)=O)Oc2cc3c(cc2C1c1ccccc1O)OCO3` (configuration not stated), the GI50 with CCRF-CEM was 15.6 µM (inactive); in the assay with LOX IMVI, 46.7 µM (inactive); in the assay on SF-268, 39.6 µM (inactive); with OVCAR-3, 33.1 µM (inactive); with SF-539, 24.2 µM (inactive); with SN12C it was 48.3 µM (inactive). In addition, the GI50 was 30 µM (inactive) in the assay with MOLT-4; 27.4 µM (inactive) with SK-MEL-5; 29.5 µM (inactive) in the assay with CAKI-1; 38.7 µM (inactive) with U-251; 22.2 µM (inactive) in the assay with K562; 16.6 µM (inactive) in the assay on SW-620. The GI50 in the assay with HCT-116 was 26.2 µM (inactive); in the assay on COLO 205 it was > 10 µM (inactive); in the assay on SNB-75, 27.9 µM (inactive); in the assay with SK-OV-3, 41.4 µM (inactive); in the assay on HL-60, 14.9 µM (inactive); with HCT-15, 33.6 µM. In addition, in the assay with SK-MEL-2, the GI50 was 35.6 µM (inactive).
Take `C=C1C(=O)OC2/C=C(\C)CC/C=C(/C)CC(OC(=O)/C(=C/CO)CO)C12` (configuration not stated): the GI50 with CCRF-CEM is 6.43 µM (inactive); in the assay on LOX IMVI, 23.4 µM (inactive); with SF-268, 26.7 µM (inactive); in the assay on OVCAR-3 it was 25.2 µM (inactive); in the assay on SF-539, 24.5 µM (inactive); in the assay on MOLT-4 it was 25.6 µM (inactive). In addition, the GI50 in the assay with SK-MEL-5 was 17.3 µM (inactive); with CAKI-1, 18.9 µM (inactive); in the assay with U-251 it was 20.9 µM (inactive); in the assay on K562 it was 30 µM (inactive); in the assay with SW-620 it was 21.4 µM (inactive); in the assay on HCT-116, > 10 µM (inactive). Moreover, the GI50 in the assay on COLO 205 is 16.9 µM (inactive); with SNB-75, 45.4 µM (inactive); in the assay on SK-OV-3 it was > 100 µM (inactive); with HL-60, 3.33 µM (inactive); with HCT-15, 17.3 µM; with OVCAR-8 it was 32.4 µM (inactive). Also, the GI50 with SK-MEL-2 was 25 µM (inactive).
As for `O=C1CC2(CCC(O)(c3ccco3)C(C(=O)c3ccco3)C2)C(=O)c2ccccc2N1` (configuration not stated), the GI50 in the assay with CCRF-CEM is > 10 µM (inactive); in the assay with LOX IMVI, 48.6 µM (inactive); in the assay with SF-268, > 100 µM (inactive); in the assay on OVCAR-3, 84.7 µM (inactive); with SF-539, > 100 µM (inactive); in the assay on SN12C, > 100 µM (inactive). The GI50 in the assay with SK-MEL-5 was 51.4 µM (inactive); in the assay on CAKI-1 it was > 100 µM (inactive); in the assay on U-251, > 100 µM (inactive); in the assay with K562 it was 50.1 µM (inactive); in the assay with SW-620, > 100 µM (inactive); with HCT-116, 88.7 µM (inactive). Besides, the GI50 in the assay with COLO 205 is > 100 µM (inactive); with SNB-75, 32.2 µM (inactive); in the assay on SK-OV-3, > 100 µM (inactive); in the assay on HL-60, 27.3 µM (inactive); with HCT-15, 53.8 µM; in the assay on OVCAR-8, 86.9 µM (inactive). In the assay on SK-MEL-2, the GI50 was > 100 µM (inactive).
Take `CC(=O)NC1CC(C(C)(C)NC(C)=O)CC=C1C` (configuration not stated): the GI50 in the assay on CCRF-CEM, with LOX IMVI, in the assay on SF-268, in the assay with OVCAR-3, in the assay with SF-539 and in the assay with SN12C was > 100 µM (inactive) throughout. Besides, the GI50 in the assay with MOLT-4, in the assay on SK-MEL-5, in the assay with U-251, in the assay with K562, with SW-620 and in the assay on HCT-116 was > 100 µM (inactive) in each case. For the same molecule, the GI50 is > 100 µM (inactive) in the assay on COLO 205; > 100 µM (inactive) with SNB-75; > 100 µM (inactive) in the assay on SK-OV-3; > 100 µM (inactive) with HL-60; above 100 µM in the assay with HCT-15; > 100 µM (inactive) in the assay with OVCAR-8.
Turning to `O=C1N[C@@H]([C@H](CCCCCO)OC(=O)c2ccccc2)CO1`, the GI50 with CCRF-CEM, in the assay with LOX IMVI, in the assay on OVCAR-3, with SF-539, with SN12C and in the assay with MOLT-4 was > 100 µM (inactive) in each case. Further, the GI50 in the assay with SK-MEL-5, in the assay with CAKI-1, with U-251, with K562, in the assay on SW-620 and with HCT-116 was > 100 µM (inactive) in each case. Besides, the GI50 is > 10 µM (inactive) with COLO 205; > 100 µM (inactive) with SNB-75; > 100 µM (inactive) in the assay on SK-OV-3; > 100 µM (inactive) in the assay on HL-60; above 100 µM with HCT-15; > 100 µM (inactive) in the assay with OVCAR-8. Moreover, in the assay with SK-MEL-2, the GI50 is > 100 µM (inactive).
Consider `Cn1c(=O)nc2n(-c3ccc(Cl)cc3Cl)c3ccccc3nc-2c1=O`, for which the GI50 in the assay with SF-268 was 25.9 µM (inactive); in the assay with OVCAR-3 it was 2.1 µM (inactive); in the assay with SF-539 it was 6.58 µM (inactive); in the assay with MOLT-4, 10.7 µM (inactive); with SK-MEL-5 it was 1.41 µM (inactive); in the assay on CAKI-1, 3.08 µM (inactive). Moreover, the GI50 in the assay on U-251 is 5.06 µM (inactive); with K562, 3.92 µM (inactive); with HCT-116, 2.18 µM (inactive); with COLO 205, 1.7 µM (inactive); with SK-OV-3, 30.8 µM (inactive); with HL-60, 3.18 µM (inactive). The GI50 was 3.05 µM in the assay on HCT-15, 2.74 µM (inactive) in the assay with OVCAR-8 and 2.87 µM (inactive) in the assay on SK-MEL-2.
